Source: PMC10793205, “Differential transmetallation of complexes of the anti-cancer thiosemicarbazone, Dp4e4mT: effects on anti-proliferative efficacy, redox activity, oxy-myoglobin and oxy-hemoglobin oxidation” (Chemical Science, 2023)
Entries after “also recorded” stand apart in the source; their conditions may differ. Values belong to the compound of their own block, whether it stands above or below them.

Experiments:
oxy-Mb = biological target: T1, oxy-Mb (Homo sapiens, UniProt P02144); assay: Oxidation of purified oxy-Mb to met-Mb (UV-vis); type: biochemical; conditions: 10 μM agent, oxy-Mb 40 μM; for oxy-Mb oxidation (in words): 1–3 h/20 °C; for oxy-Mb oxidation (met-Mb generation): 3 h incubation, 20 °C
T1 sequence (P02144 1-154): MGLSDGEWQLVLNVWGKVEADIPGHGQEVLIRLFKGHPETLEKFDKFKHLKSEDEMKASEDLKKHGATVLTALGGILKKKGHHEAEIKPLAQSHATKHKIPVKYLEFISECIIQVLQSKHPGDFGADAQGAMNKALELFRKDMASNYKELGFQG
Text: As such, it was important to examine the effect of the Dp4e4mT complexes on oxy-Hb and oxy-Mb oxidation (Fig. 6 and 7). Comparisons were made to three controls, namely DFO, Dp44mT, and DpC, as well as their Fe(III) complexes. […] In contrast, the Fe(III) complexes of Dp44mT and DpC were positive controls, as they induce oxidation of oxy-Mb.[28,39,42]
Fig. 6 (A and B) Investigation of the effects of Dp4e4mT and its Fe(III), Co(III), Ni(II), Cu(II), Zn(II), Ga(III), and Pd(II) complexes versus the positive controls DFO, Dp44mT, DpC and their Fe(III) complexes (10 μM) on met-Mb generation (% zero time) after an incubation of 1–3 h/20 °C with purified oxy-Mb (40 μM). Results are mean ± SD (3 experiments).
Spectroscopic Examination of Met-Mb and Met-Hb Formation from Oxy-Mb and Oxy- […]
Oxy-Mb and oxy-Hb solutions were prepared following established protocols.8, 17 In brief, solutions of reduced Mb and Hb in PBS (pH 7.2) were prepared by adding 1.2 mL of Na2S2O4 (12 mM) to 38 mL of met-Mb and met-Hb solution (40 μM). 17 Subsequently, oxy-Mb and oxy-Hb were generated by gently passing 150 mL of oxygen (from an air-filled syringe) through the solution containing reduced Mb and Hb, effectively eliminating any residual Na2S2O4. Following this, the oxy-Mb and oxy-Hb solutions were passed through a PD-10 column prepacked with 8.3 mL of Sephadex G-25 and equilibrated with PBS (pH 7.2). 17 In experiments examining the activity of the agents, all complexes were dissolved in 1,2-propanediol, then diluted to 10 µM in PBS (pH 7.2). The experiments were conducted over incubations of 0 to 3 h with the agents. UV-Vis spectra covering the range of 300 to 700 nm were recorded at a temperature of 20°C using a Shimadzu UV−Vis spectrophotometer (UV-1800; Shimadzu, Kyoto, Japan). Concentrations of met-Mb and met-Hb, as well as reduced-Mb and reduced-Hb, were determined at 409 nm and 435 nm, respectively. Concentrations of oxy-Mb and oxy-Hb were determined at 544 nm and 582 nm, respectively. 17

[1] = Cyclic voltammetry (redox potentials); type: physicochemical; conditions: 1 mM in MeCN/H2O 7 : 3 (v/v) + 0.1 M Et4NClO4, sweep rate 100 mV s^−1
Text: The redox potentials of Fe(III)- and Cu(II)-thiosemicarbazone complexes have been extensively studied and are important for understanding intracellular redox activity and ROS generation.[23,27,28,42] Considering this, the electrochemical properties of [Fe(Dp44mT)2]^+, [Fe(DpC)2]^+, [Fe(Dp4e4mT)2]^+, [Co(Dp4e4mT)2]^+, [Ni(Dp4e4mT)2], [Cu(Dp4e4mT)Cl], [Ga(Dp4e4mT)2]^+, and [Pd(Dp4e4mT)Cl] were investigated with cyclic voltammetry in MeCN : H2O (70 : 30 v/v; Fig. 4A and B). This solvent system was implemented to provide sufficient solubility and because it has been used by our laboratories previously to measure potentials of thiosemicarbazone complexes enabling effective comparison.[28,45,57–59]
Fig. 4 Cyclic voltammograms of: (A) [Fe(Dp44mT)2]^+, [Fe(DpC)2]^+, and [Fe(Dp4e4mT)2]^+. (B) [Co(Dp4e4mT)2]^+, [Ni(Dp4e4mT)2], [Cu(Dp4e4mT)Cl], [Ga(Dp4e4mT)2]^+, and [Pd(Dp4e4mT)Cl] (1 mM in MeCN/H2O 7 : 3 (v/v) + 0.1 M Et4NClO4) at a sweep rate of 100 mV s^−1. The voltammograms were recorded using a glassy carbon working electrode versus a […] (NHE). […]
Cyclic voltammograms were acquired for the Fe(III), Co(III), Ni(II), Cu(II), Ga(III), and Pd(II) complexes of Dp4e4mT utilizing a BAS100B/W potentiostat, equipped with an aqueous Ag/AgCl reference electrode, a glassy carbon working electrode, and a Pt wire auxiliary […]
electrode. […]

[2] = listed as Dp4e4mT Ga(III) complex
[3] = listed as Dp4e4mT Pd(II) complex

SMILES: CCN(C)C([S-])=NN=C(c1ccccn1)c1ccccn1.[Cl-].[Cu+2] [[Cu(Dp4e4mT)Cl]]
- oxy-Mb oxidation (in words) (oxy-Mb): did not significantly lead to oxidation of oxy-Mb
- Redox potential (mV vs. NHE) [1]: −151 mV vs. NHE
- Redox potential (mV vs. NHE) ([1]; listed as [Cu(Dp4e4mT)(Cl)]^±): –151 mV vs. NHE

SMILES: CN(C)C(=S)NN=C(c1ccccn1)c1ccccn1 [Dp44mT, di-2-pyridylketone 4,4-dimethyl-3-thiosemicarbazone, reference compound]
- oxy-Mb oxidation (met-Mb generation) (oxy-Mb): 129 % of the control

SMILES: CCN(C)C([S-])=NN=C(c1ccccn1)c1ccccn1.CCN(C)C([S-])=NN=C(c1ccccn1)c1ccccn1.[Ga+3] [[Ga(Dp4e4mT)2]^+]
- oxy-Mb oxidation (in words) (oxy-Mb): significantly increased oxy-Mb and oxy-Hb oxidation
- oxy-Mb oxidation (in words) (oxy-Mb; [2]): induced marked oxy-Mb oxidation
- Redox potential (mV vs. NHE) [1, 2]: −533 mV vs. NHE
- Redox potential (mV vs. NHE) ([1]; listed as [Ga(Dp4e4mT)2]^+/0): –533 (irreversible) mV vs. NHE

SMILES: CCN(C)C(=S)NN=C(c1ccccn1)c1ccccn1 [Dp4e4mT, di-2-pyridylketone-4-ethyl-4-methyl-3-thiosemicarbazone]
- oxy-Mb oxidation (met-Mb generation) (oxy-Mb): 140 % of the control

SMILES: CCN(C)C([S-])=NN=C(c1ccccn1)c1ccccn1.CCN(C)C([S-])=NN=C(c1ccccn1)c1ccccn1.[Co+3] [[Co(Dp4e4mT)2]^+]
- oxy-Mb oxidation (in words) (oxy-Mb): minimal impact
- oxy-Mb oxidation (in words) (oxy-Mb; listed as Dp4e4mT Co(III) complex): no appreciable oxidation of oxy-Mb
- Redox potential (mV vs. NHE) [1]: –642 mV vs. NHE

SMILES: CCN(C)C([S-])=NN=C(c1ccccn1)c1ccccn1.CCN(C)C([S-])=NN=C(c1ccccn1)c1ccccn1.[Fe+3] [[Fe(Dp4e4mT)2]^+]
- oxy-Mb oxidation (met-Mb generation) (oxy-Mb): 213 % of the control
- Redox potential (mV vs. NHE) [1]: +70 mV vs. NHE

Continued, in another order:

- Redox potential (mV vs. NHE) [1]: +647 mV vs. NHE
SMILES: CCN(C)C([S-])=NN=C(c1ccccn1)c1ccccn1.CCN(C)C([S-])=NN=C(c1ccccn1)c1ccccn1.[Ni+2] [[Ni(Dp4e4mT)2]]
- oxy-Mb oxidation (in words) (oxy-Mb): low activity; also recorded: minimal impact

- oxy-Mb oxidation (in words) (oxy-Mb): minimal impact
- oxy-Mb oxidation (in words) (oxy-Mb; [3]): no appreciable oxidation of oxy-Mb
- Redox potential (mV vs. NHE) [1]: –626 (irreversible) mV vs. NHE
- Redox potential (mV vs. NHE) [1, 3]: −626 mV vs. NHE
SMILES: CCN(C)C([S-])=NN=C(c1ccccn1)c1ccccn1.[Cl-].[Pd+2] [[Pd(Dp4e4mT)Cl]]

- oxy-Mb oxidation (in words) (oxy-Mb; listed as Dp4e4mT Zn(II) complex): induced marked oxy-Mb oxidation
SMILES: CCN(C)C([S-])=NN=C(c1ccccn1)c1ccccn1.CCN(C)C([S-])=NN=C(c1ccccn1)c1ccccn1.[Zn+2] [[Zn(Dp4e4mT)2]]
- oxy-Mb oxidation (in words) (oxy-Mb): significantly increased oxy-Mb and oxy-Hb oxidation
